Laboratory results published in US4585795A, “Control agent for protecting timber against fungi employing a mixture of an organic carboxylic acid salt and quaternary ammonium salt” (priority 1982, dated 1986).
≈ marks a conversion by molar mass, not a printed value. Where “and” joins values, the source holds several entries; their conditions need not be identical. Identical values can stand only once. Entries after “also recorded” stand apart in the source; their conditions may differ. Counter-ions that a name gives are not always drawn. Like-named read-outs stand apart in the source and are kept apart here.

Experiments:
[1] = tested on: sapstain fungi (Aureobasidium pullulans, Sclerophoma entoxylina, Ceratocystis pilifera); assay: mini-board test on timber, sapstain; details: for Grading points, Sapstain: Example 2, 1.2% active ingredient in wetting solution, pH 8.4, fresh timber, 23° C., 1 month, 0-5 very good, 6-10 average, 11-15 poor, 16-20 very poor; for synergism with Na-2-ethylhexanoate (in words): examples 2, 5, 6 and 12
Procedure: (§1) Laboratory experiments were carried out by making (1) dish cultures with Czapek-Dox agar at a temperature of 23° C. and (2) mini-board tests at a temperature of 23° C. and a humidity of 100%. The dish cultures had been inoculated with spores of the fungus Aureobasidium pullulans. This is a known fungus causing sapstain. In the mini-board tests, the inoculation was carried out using a spore suspension which contained a mixture of the spores of sapstain fungi. The sapstain fungi used were Aureobasidium pullulans, Sclerophoma entoxylina and Ceratocystis pilifera.
(§2) In the mini-board tests it was studied whether the toxic effect is retained on the surface of timber. The dimensions of the mini-boards were 10×50×300 mm. They had been made from newly felled pine. The pieces were immersed for 20 s into the solutions studied and were then weighed and inoculated. The control pieces were immersed into pure water. Some of the test pieces were dried for 1 month at 23° C. at a humidity of 100% in dishes covered with a plastic sheet, whereafter the sapstain and the mildew growth in them were assessed visually.
(§3) The control agent composition presented in Test 4 of Example 3 was modified in such a way that part of the dodecylbenzyldimethylammonium chloride was replaced with technical dialkyldimethylammonium chloride which contained, bound with nitrogen, C8 -C18 alkyl groups as follows: […], C10 -9%, C12 -47%, C14 -18%, C16 -8% and C18 -10%.

surface mildew = assay: mini-board test on timber, surface mildew; details: Example 2; 1.2% active ingredient in wetting solution, pH 8.4, fresh timber, 23° C., 1 month; 0-5 very good, 6-10 average, 11-15 poor, 16-20 very poor
Procedure: as §1, §2, §3

[2] = known organic acids used as control agents; cited from earlier work
mold fungi [3] = assay: miniboard test, molds (surface mildew) (Examples 8-12); details: for Growth of fungi, Freshly cut pine sapwood, Molds (score): average of ten replicates; for synergism with trimethylcoco ammonium chloride (in words): mold tests, Examples 8-11; for Growth of fungi, Molds (score): Example 12, pH 10
Procedure: (§4) Cladosporium sphaerospermum
(§5) The other half of the miniboards was dipped into the control agent solutions for 20 seconds. […] The pH was 8.5-10.0. The board were allowed to drip and they were inoculated with the above mentioned spore suspensions of sapstain and mold fungi. The boards were stored at 100% relative humidity (R.H.) at 20° C. They were inspected and visually rated after 3 weeks incubation time.
(§6) 1--some traces of fungal growth
(§7) 2--several colonies of growing fungi
(§8) 3--25% of the surface discoloured
(§9) 4--50% of the surface discoloured
(§10) The miniboards were inspected and rated after 3 weeks incubation time at 20° C. and 100% R.H. Results are presented in tables 3 and 4 as the average score of ten replicate samples.
(§11) Results are presented in tables 5-7 as the average score of ten replicate samples.
(§12) The miniboards were treated as in foregoing examples but the treatment solution contained dioctyldimethylammonium chloride instead of trimethylcocoammonium chloride.

sapstain fungi [4] = assay: miniboard test, sapstain (Examples 8-12); details: for Growth of fungi, Sapstain (score): Example 12, pH 10
Procedure: as §1, §5, §6, §7, §8, §9, §10, §11, §12

Aureobasidium pullulans = assay: dish cultures, growth inhibition of A. pullulans (Czapek-Dox agar); format: cell-based; details: 360 h
Procedure: as §1, with “pilifera. […]” for “pilifera.”
In dish cultures with A. pullulans fungus it was observed that growth was inhibited at, for example, the following concentrations of the control agents studied within a culture period of 15 days:
Using certain mixtures of these control agents, fungus growth could be inhibited at the following concentrations, for example: […]

sapstain fungi [5] = assay: miniboard test, sapstain (Examples 8-12); details: TABLE 2; […] active ingredients, pH 8.5-10.0, 5 weeks, 20° C., 100% R.H.; average of ten replicates
[6] = tested on: mildew fungi (Cladosporium sphaerospermum, Penicillum Sp., Aspergillus amstelodami); assay: mini-board one-side immersion test, mildew growth (DDC / 2-EHA-Na); details: Example 6; dry matter of wetting solution 1.5%
Procedure: The concentration of the solution was 2.5%. The immersion period was 20 s. The boards were allowed to drip, and they were inoculated with the above-mentioned spore suspension of sapstain fungi.
The following experiment was carried out as in Example 5, but a suspension of spores of the mildew fungi listed below was used for the inoculations:
as §4

[7] = tested on: sapstain fungi (Aureobasidium pullulans, Sclerophoma entoxylina, Ceratocystis pilifera); assay: mini-board one-side immersion test, sapstain (DDC / 2-EHA-Na); details: 3 weeks, 23° C.
Procedure: as §1
[…] The immersion period was 20 s. The boards were allowed to drip, and they were inoculated with the above-mentioned spore suspension of sapstain fungi.

mold fungi [8] = assay: miniboard test, molds (surface mildew) (Examples 8-12); details: TABLE 2; […] active ingredients, pH 8.5-10.0, 5 weeks, 20° C., 100% R.H.; average of ten replicates
[9] = TABLES 5-7, […] active ingredients, pH 8.5-10.0, rated as in examples 9-10
[10] = TABLES 5-7, […] active ingredients, pH 8.5-10.0, rated as in examples 9-10, average of ten replicates
[11] = pH 2.5, read-out: concentration at which growth was inhibited
[12] = pH 5, read-out: concentration at which growth was inhibited
[13] = pH 7, read-out: concentration at which growth was inhibited
[14] = TABLES 3-4, […] active ingredients, pH 8.5-10.0, 3 weeks, 20° C., 100% R.H.
[15] = TABLES 3-4, […] active ingredients, pH 8.5-10.0, 3 weeks, 20° C., 100% R.H., average of ten replicates
[16] = TABLE 1, […] active ingredients, pH 8.5-10, 3 weeks, brackets not explained
[17] = Example 5, Test 1, dry matter of wetting solution 1.5%
[18] = Example 5, Test 2, dry matter of wetting solution […]
[19] = pH 2.5, 15 days culture, single agents, read-out: concentration at which growth was inhibited
[20] = pH 5.0, 15 days culture, single agents, read-out: concentration at which growth was inhibited
[21] = pH 7.0, 15 days culture, single agents, read-out: concentration at which growth was inhibited

Compound: CCCCCCCCCCCC[n+]1ccccc1 [DPC, dodecylpyridinium chloride]
- Grading points, Sapstain [1]: 3 points
- Grading points, Surface mildew (surface mildew): 16 points

Compound: CCCCCC(=O)O [Capronic acid]
- pKa [2]: 4.83

Compound: CCCCCCCCCC(=O)O [Na-caprinoate]
- Growth of fungi, Freshly cut pine sapwood, Molds (score) (mold fungi [3]; [9]): 20
- Growth of fungi, Freshly cut pine sapwood, Sapstain (score) (sapstain fungi [4]; [10]): 2.5

Compound: CC(=O)Oc1ccccc1C(=O)O [Acetylsalicylic acid]
- MIC (Aureobasidium pullulans; [11]): 25 µg/mL (≈ 139 µM)
- MIC (Aureobasidium pullulans; [12]): > 100 µg/mL
- MIC (Aureobasidium pullulans; [13]): > 1000 µg/mL

Compound: Na-iso-octanoate
- Growth of fungi, Freshly cut pine sapwood, Molds (score) (mold fungi [3]; [14]): 20
- synergism with trimethylcoco ammonium chloride (in words) (mold fungi [3]): not as clear
- Growth of fungi, Freshly cut pine sapwood, Sapstain (score) (sapstain fungi [4]; [15]): 20

Compound: CCCCC(CC)C(=O)O (stereo not shown) [Na--2-ethylhexanoate, Na salt of 2-ethyl hexanoic acid]
- Growth of fungi, Molds (score) (mold fungi [3]; […] active ingredients): 10
- Growth of fungi, Freshly cut pine sapwood, Molds (surface mildew) (score), value in square brackets (mold fungi [3]; [16]): 2
- control of mold growth (in words) (mold fungi [3]; […] a.i. solution): quite ineffective in controlling mold and stain fungi
- synergism with trimethylcoco ammonium chloride (in words) (mold fungi [3]): most obvious
- Growth of fungi, Sapstain (score) (sapstain fungi [4]; […] active ingredients): 10
- Growth of fungi, Freshly cut pine sapwood, Sapstain (score) (sapstain fungi [4]; TABLE 1, […] active ingredients, pH 8.5-10, 3 weeks, 20° C., 100% R.H., average of 5 replicates, value without brackets): 20
- Growth of fungi, Freshly cut pine sapwood, Sapstain (score), value in square brackets (sapstain fungi [4]; [16]): 2
- control of sapstain (in words) (sapstain fungi [4]; […] a.i. solution): quite ineffective in controlling mold and stain fungi
- Growth of fungi, Freshly cut pine sapwood, Sapstain (score) (sapstain fungi [5]): 20
- Grade points, Mildew growth, Treated side [6]: 20 points
- Grade points, Sapstain, Treated side [7, 17]: 20 points
- Grade points, Sapstain, Treated side [7, 18]: 16 points
- Growth of fungi, Freshly cut pine sapwood, Molds (surface mildew) (score) (mold fungi [8]): 20

Compound: CCCCCCCC[N+](C)(C)CCCCCCCC.[Cl-] [Dioctyldimethylammonium chloride, dioctyldimethylammonium chloride]
- Growth of fungi, Molds (score) (mold fungi [3]; […] active ingredients): 1.5
- Growth of fungi, Sapstain (score) (sapstain fungi [4]; […] active ingredients): 1
- synergism with Na-2-ethylhexanoate (in words) [1]: proved

Compound: Na-isononanoate
- Growth of fungi, Freshly cut pine sapwood, Molds (score) (mold fungi [3]; [14]): 20
- synergism with trimethylcoco ammonium chloride (in words) (mold fungi [3]): quite obvious; also recorded: most obvious
- Growth of fungi, Freshly cut pine sapwood, Sapstain (score) (sapstain fungi [4]; [15]): 20

Compound: CCCCC(CC)C(=O)O (stereo not shown) [2-ethyl hexanoic acid]
- pKa [2]: 4.81
- MIC (Aureobasidium pullulans; [11]): 50 µg/mL (≈ 347 µM)
- MIC (Aureobasidium pullulans; [12]): > 100 µg/mL
- MIC (Aureobasidium pullulans; [13]): > 1000 µg/mL

Compound: CCCCCCCCCCCC[N+](C)(C)Cc1ccccc1.[Cl-] [BAC, dodecylbenzyldimethylammonium chloride]
- Grading points, Sapstain [1]: 2 points and 1.5 points
- synergism with Na-2-ethylhexanoate (in words) [1]: proved
- Grading points, Surface mildew (surface mildew): 8.5 points and 4.5 points
- MIC (Aureobasidium pullulans; [11]): 50 µg/mL
- MIC (Aureobasidium pullulans; [12]): 10 µg/mL
- MIC (Aureobasidium pullulans; [13]): 2 µg/mL

Compound: CCCCCCCCCC(=O)O [Capric acid]
- Grading points, Sapstain [1]: 3.5 points
- Grading points, Surface mildew (surface mildew): 14 points
- MIC (Aureobasidium pullulans; [19]): 50 µg/mL (≈ 290 µM)
- MIC (Aureobasidium pullulans; [20]): 100 µg/mL (≈ 580 µM)
- MIC (Aureobasidium pullulans; [21]): > 100 µg/mL

Compound: CCCCCCC(=O)O [Na-heptanoate]
- Growth of fungi, Freshly cut pine sapwood, Molds (score) (mold fungi [3]; [9]): 20
- Growth of fungi, Freshly cut pine sapwood, Sapstain (score) (sapstain fungi [4]; [10]): 7

Compound: CCCCCCCC(=O)O [Na-caprylate]
- Growth of fungi, Freshly cut pine sapwood, Molds (score) (mold fungi [3]; [9]): 20
- Growth of fungi, Freshly cut pine sapwood, Sapstain (score) (sapstain fungi [4]; [10]): 10.5

Compound: CCCCCCCCCCCC[N+](C)(C)C.[Cl-] [DMC, dodecyltrimethylammonium chloride]
- Grading points, Sapstain [1]: 1 points
- MIC (Aureobasidium pullulans; [11]): 15 µg/mL
- MIC (Aureobasidium pullulans; [12]): 15 µg/mL
- MIC (Aureobasidium pullulans; [13]): 4 µg/mL

Compound: O=C(O)c1ccccc1 [Benzoic acid]
- MIC (Aureobasidium pullulans; [11]): 50 µg/mL (≈ 409 µM)
- MIC (Aureobasidium pullulans; [12]): > 100 µg/mL
- MIC (Aureobasidium pullulans; [13]): > 100 µg/mL

Compound: CCCCCCCCCC[N+](C)(C)CCCCCCCCCC.[Cl-] [DDC, didecyldimethylammonium chloride]
- Grade points, Mildew growth, Treated side [6]: 11 points
- Grade points, Sapstain, Treated side [7, 17]: 12 points
- Grade points, Sapstain, Treated side [7, 18]: 5 points
- synergism with Na-2-ethylhexanoate (in words) [1]: proved

Compound: C/C=C/C=C/C(=O)O [Sorbic acid]
- pKa [2]: 4.77
- MIC (Aureobasidium pullulans; [19]): 50 µg/mL (≈ 446 µM)
- MIC (Aureobasidium pullulans; [20]): 100 µg/mL (≈ 892 µM)
- MIC (Aureobasidium pullulans; [21]): > 100 µg/mL
